Assay results as given in PMC10831071, “Reaction hijacking inhibition of Plasmodium falciparum asparagine tRNA synthetase” (Nature Communications, 2024).
Several values for one entry are separate records, joined by “and”; a condition that tells them apart may be missing. Identical values can stand only once.

Tests used:
[1] = system: Dd2 parasites selected with OSM-S-106; experiment: Sensitivity of ramp-up OSM-S-106-selected Dd2 clones; assay type: cell-based; details: Plasmodium falciparum
[2] = system: P. falciparum Dd2 parent; experiment: 72 h sensitivity of wildtype Dd2 parent line; assay type: cell-based, Plasmodium falciparum; details: for growth after 72 h exposure, normalised to no drug: replicates
[3] = system: protein translation in P. falciparum trophozoites (Cam3.II-rev); experiment: Protein translation assay (OPP incorporation); assay type: cell-based, Plasmodium falciparum; details: for Translation: 6 h exposure, individual experiments, 0 nM = 100
Protocol: O-propargyl-puromycin (OPP) (Abcam) was added to the culture and incubated for a further 2 h. Parasites were washed three times in 1 × PBS (Gibco™) and fixed with 4% formaldehyde (Polysciences) and 0.02% glutaraldehyde (Sigma) in 1 × PBS for 20 min at room temperature (RT). Cells were washed two times with buffer A (3% human serum in 1 × PBS). Pellets were permeabilized in buffer A containing 0.05% Triton® X-100 and washed two times with buffer A. Fixed-permeabilized cells were subjected to copper-catalyzed azide–alkyne cycloaddition (CuAAC) at 37 °C for 1 h in the presence of 0.1 mM CuSO4, 0.5 mM THPTA, 5 mM sodium ascorbate, and 0.1 μM Alexa Fluor 488 azide in buffer A. Pellets were washed four times in buffer A and resuspended in buffer A containing 25 μg/ml propidium iodide (Invitrogen™). Cells were interrogated by flow cytometry (FACS Canto II; BD Biosciences, San Jose, CA) using FITC and Cy™5.5 channels.

[4] = system: P. falciparum Cam3.II-rev; experiment: Drug pulse (6 h) viability assay; assay type: cell-based, Plasmodium falciparum
Protocol: Viability was assessed in the second cycle by flow cytometry, following labeling with 2 μM Syto-61 (Thermo Fisher Scientific)[48],[49]. Viability represents the parasitemia normalized to untreated and “kill” controls that were treated with 2 μM dihydroartemisinin (DHA; Sigma-Aldrich) for 48–72 h. For drug pulse assays, tightly synchronized Cam3.II-rev[50] parasites (1–1.5% parasitemia, 0.2% final hematocrit) were added to the plates and incubated for 6 h. Drugs were removed and the parasitemia assessed in the trophozoite stage of the next cycle.

`Nc1ncnc2cc(-c3cccc(S(N)(=O)=O)c3)sc12` [OSM-S-106] showed an IC50 ([1]; DD2, parasite Dd2-B2-2 (parent)) of 0.079 ± 0.012 µM, an IC50 ([1]; DD2, parasite Dd2-B2-3 (parent)) of 0.08 µM and an IC50 ([1]; DD2, parasite Dd2-OSM-2A6) of 0.7 µM. The IC50 ([1]; DD2, parasite Dd2-OSM-2A9) was 0.32 µM, the IC50 ([1]; DD2, parasite Dd2-OSM-2B2) was 0.7 µM and the IC50 ([1]; DD2, parasite Dd2-OSM-2D6) was 0.78 µM. The IC50 ([1]; DD2, parasite Dd2-OSM-3E5) was 0.16 µM, the IC50 ([1]; DD2, parasite Dd2-OSM-3H7) was 0.22 µM and the “growth after 72 h exposure, normalised to no drug” value (“growth … normalised to no drug” for short) ([2]; Dd2 parent, 3.90625 nM) was 105.433 and 105.733 and 104.567 and 104.167 and 104.633. The “growth … normalised to no drug” value ([2]; Dd2 parent, 7.8125 nM) was 105.2 and 103.8 and 105.633 and 102.933 and 104.1, the “growth … normalised to no drug” value ([2]; Dd2 parent, 31.25 nM) was 88.9667 and 98.9 and 97.0667 and 93.5333 and 97.5667 and the “growth … normalised to no drug” value ([2]; Dd2 parent, 62.5 nM) was 45.3 and 68.4 and 68.8333 and 58.4667 and 65.5. For the same molecule, the “growth … normalised to no drug” value ([2]; Dd2 parent, 125 nM) was 7.633 and 16.6667 and 15.5333 and 13.8333 and 17.5667, the “growth … normalised to no drug” value ([2]; Dd2 parent, 250 nM) was 0.2 and 1.267 and 0.5667 and -1.767 and 2.067 and the “growth … normalised to no drug” value ([2]; Dd2 parent, 500 nM) was -1.167 and 0 and -0.8 and -3.167 and 0.4. The “growth … normalised to no drug” value ([2]; Dd2 parent, 1000 nM) was -1.867 and -0.3333 and -1.3 and -3.5 and -0.4667, the “growth … normalised to no drug” value ([2]; Dd2 parent, 2000 nM) was -0.8333 and -0.3667 and -0.8667 and -2.833 and 0.5 and the IC50 ([2]; Dd2 parent, individual experiments) was 0.0756 µM and 0.0762 µM and 0.07 µM and 0.0742 µM. For the same molecule, the IC50 ([2]; Plasmodium falciparum, DD2, Dd2 parent, individual experiments) was 0.057 µM, the IC50 ([2]; Plasmodium falciparum, DD2, Dd2 parent, mean ± S.D., five experiments) was 0.071 µM and the Translation ([3]; 78.1 nM) was 88.2194 and 68.5604 and 78.7165. The Translation ([3]; 156.3 nM) was 70.9569 and 76.7178 and 73.7965, the Translation ([3]; 312.5 nM) was 55.5714 and 55.4781 and 55.6229 and the Translation ([3]; 625 nM) was 47.9476 and 51.4282 and 41.085. For the same molecule, the Translation ([3]; 1250 nM) was 31.8914 and 46.8967 and 33.6793, the Translation ([3]; 2500 nM) was 20.1284 and 25.4073 and 16.4444 and the Translation ([3]; 5000 nM) was 10.3606 and 16.5158 and 20.3119. For the same molecule, the Translation ([3]; 10000 nM) was 7.683 and 13.3898 and 13.8481, the Translation ([3]; 20000 nM) was 7.414 and 4.917 and 2.903 and the Translation ([3]; 40000 nM) was 7.804 and 8.474 and 8.853. The IC50 ([3]; Plasmodium falciparum, read-out: IC50 (Translation)) was 0.51 µM, the Viability ([4]; 78.1 nM, 6 h pulse, individual experiments, 0 nM = 100) was 93.5356 and 88.7263 and the Viability ([4]; 156.3 nM, 6 h pulse, individual experiments, 0 nM = 100) was 81.4036 and 83.8337. The Viability ([4]; 312.5 nM, 6 h pulse, individual experiments, 0 nM = 100) was 81.9846 and 75.9519, the Viability ([4]; 625 nM, 6 h pulse, individual experiments, 0 nM = 100) was 76.0359 and 75.5937 and the Viability ([4]; 1250 nM, 6 h pulse, individual experiments, 0 nM = 100) was 77.505 and 78.8039. The Viability ([4]; 2500 nM, 6 h pulse, individual experiments, 0 nM = 100) was 63.2365 and 57.9681, the Viability ([4]; 5000 nM, 6 h pulse, individual experiments, 0 nM = 100) was 58.8326 and 46.673 and 10.7308 and the Viability ([4]; 10000 nM, 6 h pulse, individual experiments, 0 nM = 100) was 6.448 and 2.352 and 1.857. The Viability ([4]; 20000 nM, 6 h pulse, individual experiments, 0 nM = 100) was 0 and 0.3604 and 0.5288, the Viability ([4]; 40000 nM, 6 h pulse, individual experiments, 0 nM = 100) was 1.032 and 0 (2×) and the viability at 0.0781 µM ([4]; Plasmodium falciparum, 6 h, 78.1 nM, 6 h pulse, individual experiments, 0 nM = 100) was 77.5%. For the same molecule, the viability at 0.1563 µM ([4]; Plasmodium falciparum, 6 h, 156.3 nM, 6 h pulse, individual experiments, 0 nM = 100) was 80.2%, the viability at 0.3125 µM ([4]; Plasmodium falciparum, 6 h, 312.5 nM, 6 h pulse, individual experiments, 0 nM = 100) was 81.3% and the viability at 0.625 µM ([4]; Plasmodium falciparum, 6 h, 625 nM, 6 h pulse, individual experiments, 0 nM = 100) was 79.9%. The viability at 1.25 µM ([4]; Plasmodium falciparum, 6 h, 1250 nM, 6 h pulse, individual experiments, 0 nM = 100) was 79.8%, the viability at […] ([4]; Plasmodium falciparum, 6 h, 2500 nM, 6 h pulse, individual experiments, 0 nM = 100) was 77.1% and the IC50 ([4]; Plasmodium falciparum, 6 h, read-out: IC50 (Viability)) was 4.7 µM.
